The results in this text go back to ChEMBL document CHEMBL1128887, “3-benzyl-quinolones: Novel, potent inhibitors of mammalian topoisomerase II” (Bioorg Med Chem Lett, 1995).

Experiment [1] has as its system Mus musculus. The experiment is described as follows: In vivo antitumor activity was measured as tumor growth inhibition in BDF1 male mice implanted with murine pancreatic adenocarcinoma (Panc 03) at dose schedule qd 4,6,8,10,12,14,16 administered iv. It counts as functional.
For experiment [2], the system named is Mus musculus. Description: In vivo antitumor activity was measured as maximum tolerated dose in BDF1 male mice implanted with murine pancreatic adenocarcinoma (Panc 03) at dose schedule qd 4,6,8,10,12,14,16 administered iv. It counts as functional.
The subject of experiment [3] is Mus musculus. The experiment is described as follows: In vivo antitumor activity was measured as maximum tolerated dose in BDF1 male mice implanted with murine pancreatic adenocarcinoma (Panc 03) at dose schedule qd 3-12 administered sc. It counts as functional.
For experiment [4], the system named is Mus musculus. The experiment is described as follows: In vivo antitumor activity was measured as tumor growth inhibition in BDF1 male mice implanted with murine pancreatic adenocarcinoma (Panc 03) at dose schedule qd 3-12 administered sc. Format: functional.
Experiment [5] deals with DNA topoisomerase II (Homo sapiens, UniProt P11388+Q02880). The experiment is described as follows: Inhibitory activity against HeLa cell Topoisomerase II. Format: cell-based.
Experiment [6] concerns P388. Description: In vitro cytotoxicity against P388 mouse leukemia cells. It counts as functional, cell-based.
The subject of experiment [7] is Mus musculus. The experiment is described as follows: In vivo antitumor activity was measured as tumor growth inhibition in BDF1 male mice implanted with murine pancreatic adenocarcinoma (Panc 03) at dose schedule qd 4-9 administered sc. Format: functional.
In experiment [8] the test system is Mus musculus. Description: In vivo antitumor activity was measured as maximum tolerated dose in BDF1 male mice implanted with murine pancreatic adenocarcinoma (Panc 03) at dose schedule qd 4-9 administered sc. It counts as functional.
In experiment [9] the test system is Mus musculus. The experiment is described as follows: In vivo antitumor activity was measured as tumor growth inhibition in BDF1 male mice implanted with murine pancreatic adenocarcinoma (Panc 03) at dose schedule qd 3, bid 4-9; sc bid 10,11 administered iv. It counts as functional.
Experiment [10] has as its system Mus musculus. The experiment is described as follows: In vivo antitumor activity was measured as maximum tolerated dose in BDF1 male mice implanted with murine pancreatic adenocarcinoma (Panc 03) at dose schedule qd 3, bid 4-9; sc bid 10,11 administered iv. Format: functional.
Experiment [11] deals with Mus musculus. Description: In vivo antitumor activity was measured as maximum tolerated dose in BDF1 male mice implanted with murine pancreatic adenocarcinoma (Panc 03) at dose schedule qd 3-11 administered iv. It counts as functional.
In experiment [12] the test system is Mus musculus. Description: In vivo antitumor activity was measured as tumor growth inhibition in BDF1 male mice implanted with murine pancreatic adenocarcinoma (Panc 03) at dose schedule qd 3-11 administered iv. Format: functional.
The subject of experiment [13] is Mus musculus. Description: In vivo antitumor activity was measured as maximum tolerated dose in BDF1 male mice implanted with murine pancreatic adenocarcinoma (Panc 03) at dose schedule qd 3,4,7,10 administered iv. Format: functional.
In experiment [14] the test system is Mus musculus. Description: In vivo antitumor activity was measured as tumor growth inhibition in BDF1 male mice implanted with murine pancreatic adenocarcinoma (Panc 03) at dose schedule qd 3,4,7,10 administered iv. It counts as functional.
Experiment [15] deals with Mus musculus. The experiment is described as follows: In vivo antitumor activity was measured as tumor growth inhibition in BDF1 male mice implanted with murine pancreatic adenocarcinoma (Panc 03) at dose schedule qd 3-9 administered sc. It counts as functional.
Experiment [16] has as its system Mus musculus. Description: In vivo antitumor activity was measured as maximum tolerated dose in BDF1 male mice implanted with murine pancreatic adenocarcinoma (Panc 03) at dose schedule qd 3-9 administered sc. It counts as functional.
Experiment [17] deals with Mus musculus. Description: In vivo antitumor activity was measured as maximum tolerated dose in BDF1 male mice implanted with murine pancreatic adenocarcinoma (Panc 03) at dose schedule qd 4-11 administered iv. It counts as functional.
The test system of experiment [18] is Mus musculus. The experiment is described as follows: In vivo antitumor activity was measured as tumor growth inhibition in BDF1 male mice implanted with murine pancreatic adenocarcinoma (Panc 03) at dose schedule qd 4-11 administered iv. It counts as functional.
Experiment [19] deals with Nucleic Acid. Description: Compound was evaluated for its activity against bacterial DNA gyrase. It counts as nucleic-acid assay, Bacteria.

In turn, `COc1cc([C@@H]2c3cc4c(cc3[C@@H](O[C@@H]3O[C@@H]5CO[C@@H](C)O[C@H]5[C@H](O)[C@H]3O)[C@H]3COC(=O)[C@H]23)OCO4)cc(OC)c1O` [ETOPOSIDE] returned a T/C in experiment [1] of 3%. In experiment [2], this molecule yielded an MTD of 96 mg/kg.
Regarding `Cc1cc(-c2c(F)cc3c(=O)c(C(=O)O)cn(C4CC4)c3c2F)cc(C)n1` [WIN-57294], in experiment [3], the MTD worked out at 600 mg/kg. In [4], this molecule yielded a T/C of 31%.
On to `Cc1cc(-c2c(F)cc3c(=O)c(Cc4cccc(O)c4)cn(C4CC4)c3c2F)cc(C)n1`, for which, in [5], the EC50 was 1100 nM. For the same molecule, the IC50 in [6] worked out at 2200 nM.
In turn, `Cc1cc(-c2c(F)cc3c(=O)c(Cc4ccc[nH]4)cn(C4CC4)c3c2F)cc(C)n1` gave an EC50 in experiment [5] of 5100 nM. Also, the IC50 in [6] was 930 nM.
Taken in the same sequence, the figures for `Cc1cc(-c2c(F)cc3c(=O)c(Cc4c[nH]cn4)cn(C4CC4)c3c2F)cc(C)n1` were 1600 nM and 390 nM.
The corresponding values for `Cc1cc(-c2c(F)cc3c(=O)c(Cc4ccc(Cl)cc4)cn(C4CC4)c3c2F)cc(C)n1` are 7700 nM and 20000 nM.
Molecule `COc1cc(NS(C)(=O)=O)ccc1Nc1c2ccccc2nc2ccccc12` [AMSACRINE] had a T/C in experiment [7] of 0%. For the same molecule, in experiment [8], the MTD was 48 mg/kg.
Turning to `Cc1cc(-c2c(F)cc3c(=O)c(Cc4ccc(N(C)C)cc4)cn(C4CC4)c3c2F)cc(C)n1`, the EC50 in experiment [5] was > 210000 nM.
As for `Cc1cc(-c2c(F)cc3c(=O)c(Cc4cccc5ccccc45)cn(C4CC4)c3c2F)cc(C)n1`, the EC50 in experiment [5] was > 210000 nM.
Same read-out and setting: in the case of `CC(=O)Nc1ccc(Cc2cn(C3CC3)c3c(F)c(-c4cc(C)nc(C)c4)c(F)cc3c2=O)cc1` it was > 100000 nM.
On the same count and under the same terms, the value for `Cc1cc(-c2c(F)cc3c(=O)c(Cc4ccccc4NS(C)(=O)=O)cn(C4CC4)c3c2F)cc(C)n1` was 3300 nM.
Take `Cc1cc(-c2c(F)cc3c(=O)c(Cc4ccccc4)cn(C4CC4)c3c2F)cc(C)n1`: the EC50 in [5] came out at 3900 nM. In experiment [6], this molecule had an IC50 of 7300 nM. The same molecule gave an MTD in experiment [3] of 3749 mg/kg. In experiment [4], the T/C is on record as >100%.
Regarding `Cc1cc(-c2c(F)cc3c(=O)c(Cc4ccncc4)cn(C4CC4)c3c2F)cc(C)n1`, in experiment [5], the EC50 was determined as 9100 nM.
Same read-out and setting: the value for `Cc1cc(-c2c(F)cc3c(=O)c(Cc4ccccc4C(=O)O)cn(C4CC4)c3c2F)cc(C)n1` was 200000 nM; that for `Cc1cc(-c2c(F)cc3c(=O)c(CC4CCCCC4)cn(C4CC4)c3c2F)cc(C)n1` was > 230000 nM.
In the case of `Cc1cc(-c2c(F)cc3c(=O)c(Cc4ncc[nH]4)cn(C4CC4)c3c2F)cc(C)n1`, in [5], the EC50 is 1100 nM. Moreover, in [9], the T/C was found to be 21%. In experiment [6], this molecule returned an IC50 of 1100 nM. Moreover, the MTD in experiment [10] amounted to 88 mg/kg.
For the molecule `Cc1cc(-c2c(F)cc3c(=O)c(Cc4ccc(N)cc4)cn(C4CC4)c3c2F)cc(C)n1`, the EC50 in experiment [5] was determined as 7200 nM. In other words, the single-digit micromolar range.
Take `CC(=O)Nc1ccccc1Cc1cn(C2CC2)c2c(F)c(-c3cc(C)nc(C)c3)c(F)cc2c1=O`: the EC50 in experiment [5] came out at 5100 nM.
On the same count and under the same terms, in the case of `Cc1cc(-c2c(F)cc3c(=O)c(CCc4ccccc4)cn(C4CC4)c3c2F)cc(C)n1` it was > 120000 nM.
In turn, `COc1ccc(Cc2cn(C3CC3)c3c(F)c(-c4cc(C)nc(C)c4)c(F)cc3c2=O)cc1` had an EC50 in experiment [5] of 14000 nM. In experiment [6], this molecule showed an IC50 of 21000 nM.
For `Cc1cc(-c2c(F)cc3c(=O)c(Cc4ccccc4O)cn(C4CC4)c3c2F)cc(C)n1`, the EC50 in experiment [5] was determined as 330 nM. The molecule also showed an MTD in [11] of 225 mg/kg. In experiment [6], this molecule returned an IC50 of 670 nM. Moreover, the T/C in [12] was 5%.
On to `COc1cccc(Cc2cn(C3CC3)c3c(F)c(-c4cc(C)nc(C)c4)c(F)cc3c2=O)c1`, for which, in experiment [5], the EC50 is 14000 nM. In experiment [6], the IC50 turned out to be 20000 nM.
`Cc1cc(-c2c(F)cc3c(=O)c(Cc4ccccc4N)cn(C4CC4)c3c2F)cc(C)n1` gave an EC50 in experiment [5] of 2100 nM. For the same molecule, the IC50 in experiment [6] is 2100 nM.
Molecule `Cc1cc(-c2c(F)cc3c(=O)c(Cc4cccc(O)c4O)cn(C4CC4)c3c2F)cc(C)n1` had an EC50 in [5] of 360 nM. For the same molecule, in experiment [6], the IC50 was 880 nM.
The corresponding values for `Cc1cc(-c2c(F)cc3c(=O)c(Cc4ccc(O)cc4)cn(C4CC4)c3c2F)cc(C)n1` are 1200 nM and 1500 nM.
Taken in the same sequence, the figures for `Cc1cc(-c2c(F)cc3c(=O)c(Cc4cc(O)ccc4O)cn(C4CC4)c3c2F)cc(C)n1` were 160 nM and 360 nM.
In turn, `Cc1cc(-c2c(F)cc3c(=O)c(Cc4ccccc4NC(=O)C(F)(F)F)cn(C4CC4)c3c2F)cc(C)n1` had an EC50 in [5] of 4700 nM.
`COc1ccccc1Cc1cn(C2CC2)c2c(F)c(-c3cc(C)nc(C)c3)c(F)cc2c1=O` came in with an EC50 in experiment [5] of 14000 nM. The molecule further came in with an IC50 in experiment [6] of 37000 nM.
On to `Cc1cc(-c2c(F)cc3c(=O)c(Cc4c(O)cc(O)cc4O)cn(C4CC4)c3c2F)cc(C)n1`, for which the EC50 in experiment [5] came out at 98 nM. Further, half-maximal inhibition in experiment [6] (IC50) was put at 470 nM.
`Cc1cc(-c2c(F)cc3c(=O)c(-c4ccccc4)cn(C4CC4)c3c2F)cc(C)n1`: the EC50 in experiment [5] was > 120000 nM.
Regarding `Cc1cc(-c2c(F)cc3c(=O)c(Cc4ccc(O)cc4O)cn(C4CC4)c3c2F)cc(C)n1`, the EC50 in [5] was determined as 160 nM. In [13], the MTD amounted to 20 mg/kg. Also, in experiment [14], the T/C worked out at 73%. In addition, the IC50 in experiment [6] was found to be 210 nM.
In experiment [5], `Cc1cc(-c2c(F)cc3c(=O)c(Cc4ccccn4)cn(C4CC4)c3c2F)cc(C)n1` returned an EC50 of 12000 nM.
For the molecule `Cc1cc(-c2c(F)cc3c(=O)ccn(C4CC4)c3c2F)cc(C)n1`, the T/C in experiment [15] is >100%. The same molecule yielded an MTD in experiment [16] of 2410 mg/kg.
`Cc1cc(-c2c(F)cc3c(=O)c(Cc4c(O)cccc4O)cn(C4CC4)c3c2F)cc(C)n1`: in experiment [17], the MTD came to 12 mg/kg. Further, the figures for the EC50 in experiment [5] and in [19] were 96 nM and 140 nM, respectively. Moreover, in experiment [18], the T/C is 0%. Further, 250 nM corresponded to half-maximal inhibition in experiment [6] (IC50).
